test: The compound was tested for its binding affinity towards sigma receptor in guinea pig brain membranes.

Structure (SMILES)	Ki [nM]
Clc1ccc(C2=CCN(CCCCc3ccccc3)CC2)cc1	4.1

test: as above; remark: another data set of the same source

Structure (SMILES)	Ki [nM]
FC(F)(F)c1cccc(N2CCN(CCCCc3ccccc3)CC2)c1	5.4
COc1ccccc1C1(O)CCNCC1	14300
Clc1cccc(N2CCN(CCc3ccccc3)CC2)c1	11
O=C(c1ccccc1)N1CCNCC1	11400
Clc1ccc(N2CCN(CCCc3ccccc3)CC2)cc1	2.9

The remaining lines, values ahead:

Ki [nM]	Structure (SMILES)
2.8	c1ccc(CCCN2CCN(c3ccc4ccccc4c3)CC2)cc1
2.6	c1ccc(CCCCN2CCN(c3ccccc3)CC2)cc1
